The source of these data is article PMC6300691, “Enhancement of Heat Stability and Kinetic Parameters of the Maize Endosperm ADP-Glucose Pyrophosphorylase by Mutagenesis of Amino Acids in the Small Subunit With High B Factors” (Frontiers in Plant Science, 2018).

Experiment [1] has as its target T1, wt (SH2-WT/BT2-WT) (Zea mays, UniProt P55241+Q947C0). Here is the method:
All reactions were developed as above. The activation constant was fitted to the following equation, V = Vmin + Vmax^∗X/(Ka + X), since several enzymes had appreciable activity in the absence of activator. Here, Vmin is the velocity in the absence of activator and Vmax is the change in activity from Vmin to the total velocity, X is the activator concentration, Ka is the activation constant. All linear regressions were carried out using the software program Prism (GraphPad, San Diego, CA, United States).

The target of experiment [2] is T2, K403R (Zea mays, UniProt P55241+Q947C0, K403R). In words: Activation constant from initial rates with varied 3-PGA (0-1 mM) at 2 mM ATP and 2 mM G-1-P, pH 7.4, 15 mM MgCl2, fitted to V = Vmin + Vmax*X/(Ka + X). The class given is biochemical. The arrangement: BT2 variant with wild type SH2, E. coli, purified. An excerpt: All reactions were developed as above.

The next experiment addresses T3, SH2-ISM/BT2-BF (Zea mays, UniProt P55241+Q947C0, Q96G/E123G/D161G/R331K/K402R/A443R).
T3 construct: SH2-ISM co-expressed with BT2-BF, E. coli, purified
T3 sequence (Q947C0 1-475 E123G/R331K/K402R): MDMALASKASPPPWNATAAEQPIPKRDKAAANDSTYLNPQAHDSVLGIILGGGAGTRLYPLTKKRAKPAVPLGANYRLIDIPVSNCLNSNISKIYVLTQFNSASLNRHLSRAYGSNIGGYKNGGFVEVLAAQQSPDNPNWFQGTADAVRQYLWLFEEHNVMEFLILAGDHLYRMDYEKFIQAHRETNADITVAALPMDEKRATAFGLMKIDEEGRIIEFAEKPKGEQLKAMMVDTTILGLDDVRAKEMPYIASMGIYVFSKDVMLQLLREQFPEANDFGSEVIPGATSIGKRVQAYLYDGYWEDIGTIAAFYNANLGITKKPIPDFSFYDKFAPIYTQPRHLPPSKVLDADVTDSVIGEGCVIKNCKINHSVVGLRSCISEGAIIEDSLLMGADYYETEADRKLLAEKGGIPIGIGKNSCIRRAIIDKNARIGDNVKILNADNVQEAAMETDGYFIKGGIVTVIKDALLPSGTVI
T3 sequence (P55241 46-516 Q96G/D161G/A443R): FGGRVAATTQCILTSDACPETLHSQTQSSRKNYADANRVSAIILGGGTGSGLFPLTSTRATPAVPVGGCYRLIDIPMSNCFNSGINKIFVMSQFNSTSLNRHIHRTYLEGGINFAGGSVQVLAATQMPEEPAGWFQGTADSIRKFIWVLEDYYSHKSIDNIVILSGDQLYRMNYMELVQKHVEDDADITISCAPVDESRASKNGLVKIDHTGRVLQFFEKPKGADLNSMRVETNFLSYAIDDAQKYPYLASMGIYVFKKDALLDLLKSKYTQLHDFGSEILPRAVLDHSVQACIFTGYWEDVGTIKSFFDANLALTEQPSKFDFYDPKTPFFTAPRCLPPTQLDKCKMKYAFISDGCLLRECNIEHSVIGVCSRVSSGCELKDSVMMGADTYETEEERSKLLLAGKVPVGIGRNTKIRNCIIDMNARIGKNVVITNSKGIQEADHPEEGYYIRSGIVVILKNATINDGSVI
In words: Pi inhibition study without 3-PGA, ATP varied (0.1-3 mM) at fixed Pi levels (10-30 mM) and sub-saturating G-1-P (1 mM), fit to mixed-type inhibition equations. The class given is biochemical. The following applies: read-out: Km (mM), varied substrate ATP, Pi inhibition in the absence of 3-PGA.

Experiment [3] addresses T2, K403R. The following applies: read-out: KM ATP. The source says: (§1) All V versus S plots were fitted using non-linear regression analysis and the following equation, v = VmaxS/(Km + S), where v is the measured velocity, Vmax is the maximum velocity, S is the substrate concentration.
In experiment [4] the target is T1, wt (SH2-WT/BT2-WT). The conditions noted are these: read-out: KM ATP.
Description: as §1

For experiment [5], the target named is T4, E123G, R331K, K402R (BT2-BF) (Zea mays, UniProt P55241+Q947C0, E123G/R331K/K402R).
T4 construct: BT2-BF with wild type SH2 (SH2-WT/BT2-BF), E. coli, purified
T4 sequence (Q947C0 1-475 E123G/R331K/K402R): T3 sequence (Q947C0 1-475 E123G/R331K/K402R)
T4 sequence (P55241 46-516): T3 sequence (P55241 46-516 Q96G/D161G/A443R) with G51Q, G116D, R398A
In words: Pi inhibition study without 3-PGA, ATP varied (0.1-3 mM) at fixed Pi levels (10-30 mM) and sub-saturating G-1-P (1 mM), fit to mixed-type inhibition equations. The following applies: read-out: Km (mM), varied substrate ATP, Pi inhibition in the absence of 3-PGA. The class given is biochemical.
Description: (§2) Pi inhibition was carried out in both the presence and absence of 3-PGA with the Pi and substrate concentrations listed below.
(§3) Pi inhibition patterns in the presence and absence of 3PGA were also determined. Pi inhibition patterns were obtained by varying one substrate at several fixed concentrations of Pi, while holding the co-substrate at constant sub-saturating levels.

Changes are numbered by the printed parent chain.

T1 sequence (Q947C0 1-475): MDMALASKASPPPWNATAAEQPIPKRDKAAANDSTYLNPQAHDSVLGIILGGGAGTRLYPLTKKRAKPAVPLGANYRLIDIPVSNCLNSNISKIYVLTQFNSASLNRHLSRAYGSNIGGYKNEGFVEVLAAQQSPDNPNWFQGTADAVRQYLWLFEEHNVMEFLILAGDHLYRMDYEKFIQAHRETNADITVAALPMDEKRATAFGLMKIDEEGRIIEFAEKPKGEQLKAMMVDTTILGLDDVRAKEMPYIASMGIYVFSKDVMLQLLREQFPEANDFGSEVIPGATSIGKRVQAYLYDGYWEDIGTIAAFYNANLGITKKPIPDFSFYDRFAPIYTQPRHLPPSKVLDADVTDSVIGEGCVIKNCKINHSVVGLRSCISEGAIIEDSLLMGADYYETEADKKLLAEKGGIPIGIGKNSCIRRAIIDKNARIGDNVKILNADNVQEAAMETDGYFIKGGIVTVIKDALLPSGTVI
T1 sequence (P55241 46-516): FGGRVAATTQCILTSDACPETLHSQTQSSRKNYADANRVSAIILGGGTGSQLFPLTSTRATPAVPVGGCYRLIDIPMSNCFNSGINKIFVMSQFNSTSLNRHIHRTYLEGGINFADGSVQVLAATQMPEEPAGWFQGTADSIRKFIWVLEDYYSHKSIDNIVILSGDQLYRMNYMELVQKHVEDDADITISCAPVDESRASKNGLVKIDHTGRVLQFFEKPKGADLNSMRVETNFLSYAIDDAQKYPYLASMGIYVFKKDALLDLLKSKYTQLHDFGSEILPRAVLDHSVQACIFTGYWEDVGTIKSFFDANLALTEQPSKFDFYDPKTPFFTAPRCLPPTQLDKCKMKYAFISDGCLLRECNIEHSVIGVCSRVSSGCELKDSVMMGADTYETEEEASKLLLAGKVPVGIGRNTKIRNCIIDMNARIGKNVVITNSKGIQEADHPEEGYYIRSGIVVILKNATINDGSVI
T2 sequence (Q947C0 1-475 K403R): as the sequence (Q947C0 1-475) above, with K403R counted along it
Description for SH2-ISM/BT2-BF: as §2
A large α value indicates competitive inhibition whereby the inhibitor prevents binding of the substrate. If the inhibitor enhances the binding of the substrate, α is very small, and the model reduces to an uncompetitive model. […] Special cases include pure non-competitive inhibition, where α = 1 and β = 0 and partial non-competitive inhibition whereby α = 1 and 0 < β < 1.
as §3

`O=C(O)[C@H](O)COP(=O)(O)O` [3-PGA, 3-phosphoglycerate (3-phosphoglyceric acid)]: the “3-PGA Ka (activation constant)” value was found to be 0.26 ± 0.061 at wt (SH2-WT/BT2-WT) [1] and 0.22 ± 0.057 on K403R [2].

The term Km denotes the concentration of substrate that gives half-maximal velocity. Consider `Nc1ncnc2c1ncn2[C@@H]1O[C@H](COP(=O)(O)OP(=O)(O)OP(=O)(O)O)[C@@H](O)[C@H]1O` [ATP, adenosine 5'-triphosphate], for which the Km amounted to 3.6 ± 1.63 mM at SH2-ISM/BT2-BF, 75 ± 13 µM at K403R [3], 75 ± 18 µM on wt (SH2-WT/BT2-WT) [4] and 0.79 ± 0.075 mM in experiment [5].
